Reference: patent publication US20080014255A1, “Liposome bonded with antibody and polyalkylene glycol” (Mitsubishi Chemical Corporation, priority 1999, published 2008)

Assay: Pharmacokinetic test: plasma DXR concentration after tail vein administration of liposomes
Format: in vivo, Male BALB/cAjcl mice
Settings: free (leaked) DXR
Method: Male BALB/cAjcl mice (6-week old) were used in experiments. A mouse group consisting of four mice was used for each of the liposomes, and one untreated mouse was used as a blank in the experiment. The liposomes were administered into the tail vein at the dose of 2 mg/kg as DXR. After 16 hours from the administration, a Nembutal injection solution (Dainippon Pharmaceutical Co., Ltd.) was intraperitoneally administered to the mice and thoracotomy was performed under anesthetization to collect blood. Blood plasma was separated and used for analysis of DXR.
100 μL of the plasma was added with 1 mL of 0.3 M hydrochloric acid/50% ethanol (hydrochloric ethanol) and heated at 60° C. for 10 minutes to extract DXR. The extract was cooled to 4° C. and centrifuged at 15,000 rpm for 10 minutes to collect a supernatant. The sample was diluted 4 times with hydrochloric ethanol and its fluorescence was measured at a fluorescence wavelength of 590 nm with an excitation wavelength of 490 nm. A calibration curve was prepared by using DXR diluted with hydrochloric ethanol to known concentrations and used in quantification of DXR in plasma. The recovery of DXR from the mouse plasma was 95 to 98% in a range of […] of DXR (Reference: Cancer Res., 47, 4471, 1987).
DXR in blood plasma was quantified in the same manner as in Example 2.

COc1cccc2c1C(=O)c1c(O)c3c(c(O)c1C2=O)C[C@@](O)(C(=O)CO)C[C@@H]3O[C@H]1C[C@H](N)[C@H](O)[C@H](C)O1 [DXR, doxorubicin]
disappearance from blood of DXR leaked from the liposomes: rapidly disappear from blood
